Reference: US7951359B2, “Compositions and methods for therapy or prevention of chemotherapy-induced neuropathy” (Merck Serono SA, priority 2004, dated 2011)

Experiments:
[1] = system: breast (MCF7) tumor cell line; experiment: Cell survival by acid phosphatase activity assay, MCF7; type: cell-based, human
Procedure: (§1) The human lung (SK-MES1) and breast (MCF7) tumor cell lines were obtained from ATCC. The cell lines were maintained in Dulbecco's MEM medium (Gibco; Invitrogen, Cergy-Pontoise, France, ref. 41965039) supplemented with 1% antibiotic/antimicotic mixture solution (Gibco, ref. 15240062), and 10% heat-inactivated foetal bovine serum (Gibco, ref. F7524, batch 92K3387). The cells were amplified in Nunc tissue culture flasks (80 cm2) in a humidified incubator at 37° C. with 5% CO2 in 95% air. Cultures were sub-cultured twice a week.
(§2) The enzymatic activity has been proven to be proportional to the number of living cells (Ueda et al.; 1994).
(§3) Three days after the last replication, tumor cells were seeded in 96 well-plates (TPP, VWR International, Fontenay-sous-bois, France) at a density of 1,500 cells (MCF7 line) or 3,000 cells (SK-MES1 line) per well, in a total volume of 100 μl/well and incubated overnight in a humidified incubator at 37° C. with 5% CO2 in 95% air. […] IL-6 (in buffer solution at 1.8 mg/ml, PH: 7) was immediately added at concentrations of 0, 3, 12, 50 or 200 ng/ml.
(§4) Four days after the initiation of the intoxication, acid phosphatase activity (Example 21) in each cell culture was assessed.
(§5) After removal of the culture medium, cells were rinsed with phosphate-buffered saline (PBS, Gibco, ref. 14190-094) and further incubated for 90 min at 37° C. in 100 μl of buffer containing 0.1 mol/l sodium acetate (pH 5.5), 0.1% Triton X100 (Sigma, ref. T9284) and 10 mmol/l p-nitrophenyl phosphate (Sigma, ref. N9389). Reaction was stopped by addition of 10 μl of 1 mol/l sodium hydroxide aqueous solution (Laboratoire de Produit Chimiques de la Robertsau, Strasbourg, France; ref. 28.252.293). Absorbance of the colored solution was measured at 405 nm in a microplate reader (Labsystems Multiskan Bichromatic, EST-LAB, Strasbourg, France).
(§6) The results were expressed as percentage of optical density of the control cell cultures. The heights of the columns represent mean±SEM of percentages of 5-6 wells from two independent cultures.

[2] = system: lung (SK-MES1) tumor cell line; experiment: Cell survival by acid phosphatase activity assay, SK-MES1; type: cell-based, human
Procedure: as §1, §2, §3, §4, §5, §6

[3] = system: human WiDr colon carcinoma; experiment: Human WiDr colon carcinoma tumor growth in nude mice; type: in vivo, mouse
Procedure: The following experiment was carried out to check potential drug interaction between IL-6 and the chemotherapeutic agent in vivo.
Balb/c nude mice are used since have proven to be susceptible host systems for the growth of human WiDr colon carcinoma tumor cells. WiDr cells were provided by the bank of the National Cancer Research Institute Genova-Italy. Cell species: human, tissue: colon, tumor: colon adenocarcinoma, accession number: ICLC HTL00003.
Tumor size was recorded twice a week for 4 weeks starting 4 days after cell inoculation.
Each Balb/c nude mice (about 20-25 g body weight) was inoculated subcutaneously (s.c.) with 10^7+5% WiDr cells/mouse (0.2 mL/mouse of cell suspension) on day 1.
A group administered with 0.02% mouse albumin (Sigma) in 40 mM phosphate buffer at pH=7.0, s.c., a group administered with 3.5 mg/kg Cis-platinum, i.p. (in 0.9% NaCl sterile solution for injection), three groups of rats each treated with IL-6 (in 0.02% mouse albumin in 40 mM phosphate buffer at pH=7.0), s.c. at 3, 10 or 30 μg/kg and three groups of rats treated with IL-6 either at 3, 10 or 30 μg/kg IL-6, s.c. in combination with cis-platinum 3.5 mg/kg, i.p.
IL-6 at […] was given s.c. daily (10 mL/kg) from day 4 up to day 18. […] Tumor size was recorded twice a week for 4 weeks starting 4 days after cell inoculation. […]

[4] = system: cisplatin induced neuropathy; experiment: Hot plate test, therapeutic treatment of established cisplatin neuropathy; type: in vivo, rat
[5] = system: cisplatin induced neuropathy; experiment: Morphometric analysis of sciatic nerve in cisplatin-treated rats, co-administration; type: in vivo, rat
Procedure: The total number of fibers per nerve section was obtained from 3 randomized slices of each sample. The counting was performed on 2 selected fields per slice.

[6] = Body weight in cisplatin induced neuropathy rat model; type: in vivo
Procedure: (c) 4 treated-cisplatin-intoxicated groups (n=10) consisting of animals receiving daily SC injections of IL-6 compound at 4 different doses: 0.3, 1, 3, 10 μg/kg; and (d) a 4-methylcatechol (4-MC)-treated, cisplatin-intoxicated group (n=10) receiving a daily IP injection of 4-MC at 10 μg/kg. […] The drug was diluted in 0.9% sterile aqueous solution of sodium chloride.

[7] = system: cisplatin induced neuropathy; experiment: Hot plate test in cisplatin-treated rats, co-administration; type: in vivo, rat
Procedure: The rat was placed inside a glass cylinder of 17 cm height and 21 cm diameter on a heating-plate maintained at 52° C. (Medite OTS 40, Microm, Francheville, Rhône, France). The animal behavior was observed, particularly the licking of a foot and the adjusted leap. The latency before licking a foot or before jumping to escape the heat (adjusted leap) was recorded. The time needed to feel the thermal pain is related to the thermal sensitivity and tends to increase when thermal sensitivity is altered.

[8] = cisplatin (2.5 μM), carboplatin (25 μM), 4 days
[9] = IL-6 3, 12, 50 or 200 ng/ml, p>0.05

## N.N.[Cl][Pt][Cl] [cisplatin, Cis-dichlorodiamine platinum]
[1]; [8]
  decrease in cell survival versus control: about 50%
[2]; [8]
  decrease in cell survival versus control: about 50%
[3]; cisplatin 3.5 mg/kg i.p. days 4, 8, 12, 18, significant on days 18, 22, 25
  WiDr tumor growth: reduce tumor growth
[4]; cisplatin alone, during and 3 weeks post-cisplatin
  hot plate first reaction to heat versus control: significant delayed first reaction to heat
[5]; cisplatin alone
  fiber diameter: significantly decreases fibers diameter
  percent of myelinated fibers versus control: significant reduction in the percent of myelinated fibers
  percentage of degenerated fibers versus control: two-folds higher
[6]; cisplatin 2 mg/kg IP twice a week, 4 weeks, vehicle-treated
  body weight lost at completion of cisplatin administration: about 10%
[7]; cisplatin alone, from 3 weeks
  hot plate first reaction to heat versus control: significant delayed first reaction to heat

## IL-6: Recombinant human IL-6 produced in genetically engineered Chinese Hamster Ovary (CHO) cells
[1]; [9]
  survival of vincristine or cisplatine or carboplatin treated cells in the presence of IL-6: did not change significantly
[1]; IL-6 3-200 ng/ml, p>0.05
  effect of taxol on cell survival with IL-6: did not change the effect of taxol
[1]; p>0.05
  survival of cells intoxicated with carboplatin and taxol in the presence of IL-6: remained unchanged
[2]; [9]
  survival of vincristine or cisplatine treated cells in the presence of IL-6: did not change significantly
[2]; IL-6 3, 12, 50 or 200 ng/ml, significant
  survival of carboplatin-intoxicated cells in the presence of IL-6: decrease of survival
[2]; IL-6 3-200 ng/ml, p>0.05
  effect of taxol on cell survival with IL-6: did not change the effect of taxol
[2]; p>0.05
  survival of cells intoxicated with carboplatin and taxol in the presence of IL-6: remained unchanged
[3]; IL-6 alone 3, 10 and 30 μg/kg s.c. daily day 4 to 18
  WiDr tumor growth: did not significantly affect the growth of the tumor
[4]; IL-6 10 μg/kg, 2 weeks after IL-6 treatment, p≦0.05
  time of the first reaction to heat, significance: Significant results
[4]; IL-6 3 and 10 μg/kg SC daily from day 23, two weeks after initiation, p≦0.05
  time of the first reaction to heat: overall reduction in the time of the first reaction
[5]; IL-6 1, 3, 10 μg/kg
  loss of myelin wall by cisplatin: significantly protected fibers against the loss of myelin wall
  percentage of degenerated fibers by cisplatin: reduce the percentage of degenerated fibers
[5]; IL-6, statistically significant at 1-10 μg/kg
  cisplatin-induced axon diameter decrease: prevents/reduces cisplatin-induced axon diameter decrease
[5]; IL-6 all doses tested, statistically significant at 1-10 μg/kg
  fiber diameter decrease by cisplatin: prevents/reduce the diameter decrease
[5]; IL-6 co-administration
  myelinated fibers in cisplatin treated rats: increased myelinated fibers
[6]; IL-6 0.3, 1, 3, 10 μg/kg SC daily with cisplatin
  animal growth under cisplatin with IL-6: marked inhibition of animal growth, regardless of IL-6 treatments undertaken
[7]; IL-6 10 μg/kg SC daily
  delay of the first reaction to heat by cisplatin: fully prevented
[7]; IL-6 0.3, 1, 3, 10 μg/kg SC daily, p≦0.05
  delay of the first reaction to heat by cisplatin: prevented/reduced delay of the first reaction to heat
